Results taken from US20240349724A1, “ANTIMICROBIAL COMPOSITIONS EFFECTIVE AGAINST BACTERIA AND FUNGUS” (TerMir Inc., priority 2017, published 2024).
In brackets after ≈: the same amount, converted by molar mass. Several values for one entry are separate records, joined by “and”; a condition that tells them apart may be missing. Equal entries are not always repeated. Where two headings read alike, the source gives them in different places.

Tests used:
[1] = test system: Bacillus subtilis ATCC 15841; assay: CLSI M07-A10 microdilution / checkerboard MIC; type: cell-based; conditions: for Reduced PhlB: fraction of PhlB dosage
Experimental: (§1) Tests are conducted according to the 2015 Clinical and Laboratory Standards Institute Method M07-A10: Methods for dilution antimicrobial susceptibility tests for bacteria that grow aerobically. Sterile 96-well microplates are prepared with Meuller Hinton Broth containing varying amounts of test compounds in each well (100 μL per well). Then according to the CLSI M07-A10 microdilution assay, a row with a 2-fold serial dilution series with 10 different concentrations of the test compound are prepared along with three replicate rows for each combination of test organism and test compound. According to the CLSI M07-A10 microdilution combination (checkerboard) assay, an 8×8 well matrix containing two 2-fold serial dilution series of two test compounds arranged perpendicular to one another so that each concentration of compound 1 is prepared once with each combination of compound 2. One column with a 2-fold serial dilution series with 8 different concentrations of test compound 1 is prepared along with one column with a 2-fold serial dilution series with 8 different concentrations of test compound 2. One microplate for each combination of test organism and pair of test compounds is prepared in addition to a cell suspension of each test microorganism equivalent to a 0.5 McFarland turbidity standard using fresh isolated colonies grown on Meuller Hinton Agar. Each cell suspension is diluted in a 1:20 ratio in Meuller Hinton Broth and the microplate is inoculated by adding add 10 μL to each well. Microplates then incubate according to CLSI M07-A10.
(§2) Microplates are read and data was interpreted according to the following procedure: The minimum inhibitory concentration (MIC) is the minimum concentration of the test compound needed to cease growth of the organism, it encompasses microbe death as well as microbe loss of the ability to divide and grow. Supplemental light was used during the 24-hour incubation period. Light intensity ranged from 1259 and 4203 lux.

[2] = test system: Rhizobium radiobacter ATCC 70069; assay: CLSI M07-A10 microdilution / checkerboard MIC; type: cell-based; conditions: for MIC: Agrobacterium radiobacter, ATCC70069, 24 h, read-out: MIC at 24 hours in Light, Fluorescein, R. radiobacter; for Reduced PhlB: fraction of PhlB dosage
Experimental: as §1, §2

[3] = test system: Ralstonia insidiosa ATCC 49129; assay: microbe, parasite or virus in culture; type: cell-based; conditions: for Reduced PhlB: fraction of PhlB dosage
Experimental: as §1, §2

[4] = test system: Stenotrophomonos maltophilia ATCC 13637; assay: CLSI M07-A10 microdilution / checkerboard MIC; type: cell-based, Stenotrophomonas maltophilia; conditions: for Reduced PhlB: fraction of PhlB dosage
Experimental: as §1, §2

[5] = test system: Aspergillus niger ATCC 6275; assay: Mold microplate MIC (visible growth); type: cell-based; conditions: for Reduced PhlB: fraction of PhlB dosage
Experimental: (§3) Mold: Culture Curvularia and Aspergillus on SDA at 35±1° C. for 7 days or until good sporulation is obtained. Culture Alternaria at 30±1° C. for 7 days or until good sporulation is obtained. Harvest sporulating colonies with 0.8-0.9% saline solution and transfer to a fresh tube. Allow heavy particles to settle for 5 minutes and transfer the upper homogeneous suspension to a sterile tube and mix via vortex for 15 seconds. Read and adjust the optical density to OD (530 nm): • Alternaria: 0.25-0.30 • Aspergillus: 0.09-0.13 • Curvularia: 0.25-0.30
(§4) Data Analysis/Reporting: Read microplates for visible growth (turbidity). Use the minimum inhibitory concentration (MIC).

[6] = test system: Altemaria alternata ATCC 66981; assay: Mold microplate MIC (visible growth); type: cell-based, Alternaria alternata; conditions: for Reduced PhlB: fraction of PhlB dosage
Experimental: as §3
(§5) During the Candida adjusted inoculum preparation, saline cell suspensions with optical densities equal to that of a 0.5 McFarland Equivalence Turbidity Standard were diluted 1:1000 in RPMI 1640, rather than 1:2000 as instructed in CLSI M27-A3. Alternaria was cultured at 30±1° C. for 7 days or until good sporulation was obtained.
as §4

[7] = test system: Candida albicans ATCC 10231; assay: Yeast microplate MIC (visible growth); type: cell-based; conditions: for Reduced PhlB: fraction of PhlB dosage
Experimental: Yeast: Culture Candida on Sabouraud Dextrose Agar (SDA) at 35±1° C. for 24-48 hours until colonies are approximately 2-3 mm in diameter. Suspend ˜5 colonies in 5 mL of sterile 0.8-0.9% saline solution. Vortex for 15 seconds. Adjust the cell density to that of a 0.5 McFarland Equivalence Turbidity Standard. Prepare adjusted inoculum: Dilute the cell suspension 1:2000 in RPMI 1640. Inoculate microplates by adding 100 μL to each applicable well.
as §5, §4

[8] = test system: Curvularia lunata ATCC 12017; assay: Mold microplate MIC (visible growth); type: cell-based; conditions: for Reduced PhlB: fraction of PhlB dosage
Experimental: as §3, §4

Gram(+) bacteria = conditions: background statement; cited from earlier work
Gram(−) bacteria = conditions: PhlB on its own; background statement; cited from earlier work
[9] = B. subtilis, alone ('Trial' line)
[10] = R. radiobacter, alone ('Trial' line)
[11] = R. insidiosa, alone ('Trial' line)
[12] = S. maltophilia, alone ('Trial' line)
[13] = A. alternata, alone ('Trial' line)
[14] = C. albicans, alone ('Trial' line)

Compound: N.N.O=S(=O)(O)O [Ammonium sulfate, ammonium sulfate]
- MIC at 24 hours in Light, Ammonium sulfate [1, 9]: 93800 µM
- MIC at 24 hours in Light, Ammonium sulfate [2, 10]: 93800 µM
- MIC at 24 hours in Light, Ammonium sulfate [3, 11]: 750000 µM
- MIC at 24 hours in Light, Ammonium sulfate [4, 12]: 375000 µM
- MIC at 24 hours in Light, Ammonium sulfate ([5]; A. niger, alone ('Trial' line)): 93749 µM
- MIC at 24 hours in Light, Ammonium sulfate [6, 13]: 46874 µM
- MIC at 24 hours in Light, Ammonium sulfate [7, 14]: 750000 µM

Compound: O=C1OC2(c3ccc(O)cc3Oc3cc(O)ccc32)c2ccccc21 [Fluorescein, 3′,6′-dihydroxyspiro[2-benzofuran-3,9′-xanthene]-1-one]
- MIC ([1]; Bacillus subtilis, ATCC15841, 24 h, read-out: MIC at 24 hours in Light, Fluorescein, B. subtilis, alone ('Trial' line)): 62.5 µM
- MIC ([2]; alone ('Trial' line)): 0.98 µM
- MIC ([2]; combined with PHL B (c2 of same line)): 0.49 µM
- MIC ([3]; Ralstonia insidiosa, ATCC49129, 24 h, read-out: MIC at 24 hours in Light, Fluorescein, R. insidiosa, alone ('Trial' line)): 7.8 µM
- MIC ([4]; Stenotrophomonas maltophilia, ATCC13637, 24 h, read-out: MIC at 24 hours in Light, Fluorescein, S. maltophilia, alone ('Trial' line)): 7.8 µM
- MIC ([5]; Aspergillus niger, ATCC6275, 24 h, read-out: MIC at 24 hours in Light, Fluorescein, A. niger, alone ('Trial' line)): 1.86 µM (≈ 0.618 µg/mL)
- MIC ([8]; Curvularia lunata, ATCC12017, 24 h, read-out: MIC at 24 hours in Light, Fluorescein, C. lunata, alone ('Trial' line)): 15.7 µM (≈ 5.21 µg/mL)
- MIC ([6]; Alternaria alternata, ATCC66981, 24 h, read-out: MIC at 24 hours in Light, Fluorescein, A. alternata, alone ('Trial' line)): 15.7 µM (≈ 5.21 µg/mL)
- MIC ([7]; Candida albicans, ATCC10231, 24 h, read-out: MIC at 24 hours in Light, Fluorescein, C. albicans, alone ('Trial' line)): 2000 µM (≈ 665 µg/mL)

Compound: O=C1OC2(c3cc(Br)c([O-])c(Br)c3Oc3c2cc(Br)c([O-])c3Br)c2c(Cl)c(Cl)c(Cl)c(Cl)c21.[Na+].[Na+] [PHL B, disodium salt of 2′,4′,5′,7′-tetrabromo-4,5,6,7-tetrachlorofluorescein]
- MIC at 24 hours in Light, PHL B [1, 9]: 0.98 µM and 0.49 µM
- Reduced PhlB ([1]; B. subtilis, with Fluorescein): ⅛ and ¼ and ½ and 1/16
- Reduced PhlB ([1]; B. subtilis, with NaTetraBorate): 3/98 and 3/49 and ⅛ and ¼ and ½
- MIC at 24 hours in Light, PHL B [2, 10]: 0.12 µM and 0.24 µM
- Reduced PhlB ([2]; R. radiobacter, with Fluorescein): ¼ and ½ and ⅛
- Reduced PhlB ([2]; R. radiobacter, with NaTetraBorate): ¼ and ½
- Reduced PhlB ([3]; R. insidiosa, with Fluorescein): ⅛ and ¼ and ½ and 1/16
- Reduced PhlB ([3]; R. insidiosa, with NaTetraBorate): ⅛ and ¼ and ½
- Reduced PhlB ([4]; S. maltophilia, with Fluorescein): ⅛ and ¼ and ½ and 1/16
- Reduced PhlB ([4]; S. maltophilia, with NaTetraBorate): ⅛ and ¼ and ½
- MIC at 24 hours in Light, PHL B ([5]; A. niger, alone ('Trial' line)): 1.93 µM and 3.62 µM
- Reduced PhlB ([5]; A. niger, with Ammonium sulfate): ¼ and ½
- Reduced PhlB ([5]; A. niger, with Fluorescein): ½
- Reduced PhlB ([5]; A. niger, with NaTetraBorate): ½
- Reduced PhlB ([8]; C. lunata, with Ammonium sulfate): ⅛ and ¼ and ½
- Reduced PhlB ([8]; C. lunata, with Fluorescein): ¼ and ½
- Reduced PhlB ([8]; C. lunata, with NaTetraBorate): ¼ and ½
- MIC at 24 hours in Light, PHL B [6, 13]: 1.93 µM and 3.62 µM
- Reduced PhlB ([6]; A. alternata, with Ammonium sulfate): ¼ and ½
- Reduced PhlB ([6]; A. alternata, with Fluorescein): ¼
- Reduced PhlB ([6]; A. alternata, with NaTetraBorate): ½
- MIC at 24 hours in Light, PHL B [7, 14]: 125 µM and 125.36 µM and 62.68 µM
- Reduced PhlB ([7]; C. albicans, with Ammonium sulfate): 1/125 and 1/64 and 1/32 and 1/16 and ⅛ and ¼ and ½
- Reduced PhlB ([7]; C. albicans, with Fluorescein): 1/64 and 1/32 and 1/16 and ⅛ and ¼ and ½
- Reduced PhlB ([7]; C. albicans, with NaTetraBorate): 1/128 and 1/64 and 1/32 and 1/16 and ⅛ and ¼ and ½
- control of Gram(+) bacteria (Gram(+) bacteria): control Gram(+) bacteria at millimolar to micromolar concentrations
- control of Gram(−) bacteria (Gram(−) bacteria): does not control Gram(−) bacteria

Compound: [Na+].[Na+].[O-]B1OB2OB([O-])OB(O1)O2 [NaTetraBorate, sodium tetraborate]
- MIC at 24 hours in Light, NaTetraBorate [1, 9]: 10000 µM
- MIC at 24 hours in Light, NaTetraBorate [2, 10]: 2500 µM
- MIC at 24 hours in Light, NaTetraBorate [3, 11]: 10000 µM
- MIC at 24 hours in Light, NaTetraBorate [4, 12]: 5000 µM
- MIC at 24 hours in Light, NaTetraBorate ([5]; A. niger, alone ('Trial' line)): 2673 µM
- MIC at 24 hours in Light, NaTetraBorate ([8]; C. lunata, alone ('Trial' line)): 4999.50 µM
- MIC at 24 hours in Light, NaTetraBorate [6, 13]: 625160 µM
- MIC at 24 hours in Light, NaTetraBorate [7, 14]: 9999 µM
